Test results: patent US8575382B2, “Low molecular weight pharmacological activity modulators” (“Ivy Pharm” LLC, priority 2009, dated 2013)

Columns and labels:
[1] = test system: A431 line human epidermoid carcinoma cells; assay: Proliferative activity and death of A431 cells (cell count, propidium iodide flow cytofluorimetry); type: cell-based; settings: for Proportion of dead cells / Total cells: A431; for effect on the proliferative activity of A431 cells (in words): summary of Table 2
Protocol: The number of living and dead cells in a culture was determined after 24 and 48 hours.
A431 line human epidermoid carcinoma cells, obtained from the All-Russian Cell Culture Collection (Russian Academy of Sciences Institute of Cytology, St. Petersburg).
Cells are cultured in a CO2 incubator (New Brunswick Scientific) at +37° C. and with a CO2 content of 5%. Cells are grown in these conditions to a monolayer culture and are exposed to the action of the test compounds.
The DMEM medium (OOO PanEko, Moscow) with the addition of gentamicin K (80 mg/l), L-glutamine (300 mg/l) and fetal serum (PAA, Austria) to a final concentration of 10%, is used for culturing cells. Cells are transferred to a medium with a reduced serum content of 0.5% 24 hours before commencing an experiment.
The cells were then suspended by pipetting with an automatic pipette and were combined with the previously collected medium. Samples were centrifuged at room temperature for 5 min at 400 g, the supernatant was removed and the deposit was resuspended in pH 7.4 PBS phosphate-salt buffer.
Propidium iodide was added to a suspension of cells to a concentration of 50 μg/ml 5-10 min before measuring in a Bruker ACR 1000 flow cytofluorimeter. This stain is able to penetrate through a damaged cell membrane, and stained cells are dead.

[2] = test system: A431 line human epidermoid carcinoma cells; assay: as above; type: cell-based
[3] = Solubility of the crystalline coordination compound; type: physicochemical
Protocol: [drawing 10] […] (1.811 mmole) of AgNO3, dissolved in the minimum amount of water, are added to a suspension of 300 mg (0.904 mmole) of Pd(2,2′-dipy)Cl2 in 15 ml of water. The mixture is acidified with 0.5 ml of concentrated HNO3, homogenized in an ultrasound bath for 15 min and filtered. […] (0.905 mmole) of L-cysteine (cys), dissolved in the minimum amount of water, are added to the filtrate. The reaction mixture is evaporated in air at room temperature. […] Yield 70-75%.

[4] = AG1478 0.75 μg/ml 15 min before EGF 200 ng/ml, 24 hours
[5] = AG1478 0.75 μg/ml 15 min before EGF 200 ng/ml, 48 hours
[6] = AG1478 1.0 μg/ml 15 min before EGF 200 ng/ml, 24 hours
[7] = AG1478 1.0 μg/ml 15 min before EGF 200 ng/ml, 48 hours
[8] = AG1478 2.5 μg/ml 15 min before EGF 200 ng/ml, 24 hours
[9] = AG1478 2.5 μg/ml 15 min before EGF 200 ng/ml, 48 hours
[10] = AG1478 5.0 μg/ml 15 min before EGF 200 ng/ml, 24 hours
[11] = AG1478 5.0 μg/ml 15 min before EGF 200 ng/ml, 48 hours
[12] = Table 2, age of culture 24 hours, cysteine […], C—Pd […], C—Pd:C […], EGF 200 ng/ml
[13] = Table 2, age of culture 48 hours, cysteine […], C—Pd […], C—Pd:C […], EGF 200 ng/ml
[14] = Table 2, age of culture 0 hours, cysteine […], C—Pd […], C—Pd:C […], EGF 200 ng/ml

Compound: COc1cc2ncnc(Nc3cccc(Cl)c3)c2cc1OC [AG1478, tyrphostin AG 1478]
- Proportion of dead cells [1, 4]: 20%
- Total cells [1, 4]: 48100 mL⁻¹
- Proportion of dead cells [1, 5]: 25%
- Total cells [1, 5]: 70800 mL⁻¹
- Total cells ([1]; AG1478 1.0 μg/ml 15 min before EGF 200 ng/ml, 0 hours): 10000 mL⁻¹
- Proportion of dead cells [1, 6]: 23%
- Total cells [1, 6]: 47100 mL⁻¹
- Proportion of dead cells [1, 7]: 23%
- Total cells [1, 7]: 65700 mL⁻¹
- Total cells ([1]; AG1478 2.5 μg/ml 15 min before EGF 200 ng/ml, 0 hours): 10000 mL⁻¹
- Proportion of dead cells [1, 8]: 27%
- Total cells [1, 8]: 39400 mL⁻¹
- Proportion of dead cells [1, 9]: 30%
- Total cells [1, 9]: 61100 mL⁻¹
- Total cells ([1]; AG1478 5.0 μg/ml 15 min before EGF 200 ng/ml, 0 hours): 10000 mL⁻¹
- Proportion of dead cells [1, 10]: 29%
- Total cells [1, 10]: 6400 mL⁻¹
- Proportion of dead cells [1, 11]: 41%
- Total cells [1, 11]: 2100 mL⁻¹
- Total cells ([2]; AG1478 0.75 μg/ml 15 min before EGF 200 ng/ml, 0 hours): 10000 mL⁻¹

Compound: [Pd2(μ-S-L-Cys)(μ-S-L-CysH)(2,2′-dipy)2](NO3)3.4.5H2O [C—Pd]
- solubility ([3]; in acetone): virtually insoluble
- solubility ([3]; in dichloromethane): virtually insoluble
- solubility ([3]; in ethanol): less soluble
- solubility ([3]; in water): readily soluble
- Proportion of dead cells [1, 12]: 8%
- Total cells [1, 12]: 32300 mL⁻¹
- Proportion of dead cells [1, 13]: 12%
- Total cells [1, 13]: 36100 mL⁻¹
- effect on the proliferative activity of A431 cells (in words) [1]: stimulates the proliferative activity
- Total cells [2, 14]: 10000 mL⁻¹

Compound: N[C@@H](CS)C(=O)O [Cysteine, cysteine]
- Proportion of dead cells [1, 12]: 11%
- Total cells [1, 12]: 14700 mL⁻¹
- Proportion of dead cells [1, 13]: 22%
- Total cells [1, 13]: 23500 mL⁻¹
- effect on the proliferative activity of A431 cells (in words) [1]: no effect on stimulation of proliferative activity
- Total cells [2, 14]: 10000 mL⁻¹
